Experiments:
[1] = target: c-Met (Homo sapiens, UniProt P08581); assay: c-Met Inhibition Assay, coupled enzyme system; format: biochemical; conditions: enzyme inhibition data (Ki), Table 11
In short: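 Pyruvate kinase/lactate dehydrogenase-coupled NADH assay in HEPES pH 7.5 with 80 nM c-Met, 200 μM ATP and 10 μM polyGluTyr at 30° C. Compound (0.006–12.5 μM final, 12-point) preincubated 10 min before ATP start; rates over 10 min gave Ki.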

[2] = target: T1, JAK3 (Homo sapiens, UniProt P52333); assay: JAK3 Inhibition Assay, 33P incorporation; format: biochemical; conditions: enzyme inhibition data (Ki), Table 11
T1 sequence (P52333 1-1124): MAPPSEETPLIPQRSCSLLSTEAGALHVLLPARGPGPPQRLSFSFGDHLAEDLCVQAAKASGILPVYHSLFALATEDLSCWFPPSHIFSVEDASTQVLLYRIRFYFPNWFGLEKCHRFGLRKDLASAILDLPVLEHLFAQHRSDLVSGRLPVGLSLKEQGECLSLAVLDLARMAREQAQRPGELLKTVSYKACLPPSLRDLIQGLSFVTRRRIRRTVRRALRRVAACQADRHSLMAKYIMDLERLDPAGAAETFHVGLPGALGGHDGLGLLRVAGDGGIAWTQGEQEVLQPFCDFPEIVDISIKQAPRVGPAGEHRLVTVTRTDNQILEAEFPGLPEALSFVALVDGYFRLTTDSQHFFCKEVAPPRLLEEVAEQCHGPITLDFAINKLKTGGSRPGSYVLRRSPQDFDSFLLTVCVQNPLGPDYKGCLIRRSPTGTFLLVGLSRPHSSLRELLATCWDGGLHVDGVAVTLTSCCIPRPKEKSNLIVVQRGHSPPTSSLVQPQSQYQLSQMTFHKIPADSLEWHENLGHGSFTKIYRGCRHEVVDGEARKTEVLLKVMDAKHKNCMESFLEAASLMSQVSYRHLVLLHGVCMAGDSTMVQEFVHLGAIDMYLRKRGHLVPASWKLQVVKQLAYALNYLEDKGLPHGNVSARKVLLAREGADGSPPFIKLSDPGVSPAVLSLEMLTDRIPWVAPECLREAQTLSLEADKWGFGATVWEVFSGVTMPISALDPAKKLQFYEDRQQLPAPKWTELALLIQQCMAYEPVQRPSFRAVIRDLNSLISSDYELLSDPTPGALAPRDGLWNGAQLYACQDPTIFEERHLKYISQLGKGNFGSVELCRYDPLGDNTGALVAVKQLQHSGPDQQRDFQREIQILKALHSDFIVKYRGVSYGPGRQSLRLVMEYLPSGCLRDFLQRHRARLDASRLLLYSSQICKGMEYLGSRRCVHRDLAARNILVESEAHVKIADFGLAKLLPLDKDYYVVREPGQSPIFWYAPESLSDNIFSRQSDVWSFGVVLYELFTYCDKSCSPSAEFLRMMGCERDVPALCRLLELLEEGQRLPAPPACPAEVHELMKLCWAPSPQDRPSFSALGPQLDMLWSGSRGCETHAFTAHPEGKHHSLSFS
In short: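 33P incorporation into 1 μM poly(Glu)4Tyr was counted after TCA stop and glass fiber filtration. The 20 min reaction ran at 25 °C with 1 nM JAK3 and 5 μM ATP (200 uCi/μmole). Buffer was 100 mM HEPES pH 7.4, 10 mM MgCl2, 25 mM NaCl, 1 mM DTT, 0.01% BSA.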

c-Met, sequence (P08581 25-1390): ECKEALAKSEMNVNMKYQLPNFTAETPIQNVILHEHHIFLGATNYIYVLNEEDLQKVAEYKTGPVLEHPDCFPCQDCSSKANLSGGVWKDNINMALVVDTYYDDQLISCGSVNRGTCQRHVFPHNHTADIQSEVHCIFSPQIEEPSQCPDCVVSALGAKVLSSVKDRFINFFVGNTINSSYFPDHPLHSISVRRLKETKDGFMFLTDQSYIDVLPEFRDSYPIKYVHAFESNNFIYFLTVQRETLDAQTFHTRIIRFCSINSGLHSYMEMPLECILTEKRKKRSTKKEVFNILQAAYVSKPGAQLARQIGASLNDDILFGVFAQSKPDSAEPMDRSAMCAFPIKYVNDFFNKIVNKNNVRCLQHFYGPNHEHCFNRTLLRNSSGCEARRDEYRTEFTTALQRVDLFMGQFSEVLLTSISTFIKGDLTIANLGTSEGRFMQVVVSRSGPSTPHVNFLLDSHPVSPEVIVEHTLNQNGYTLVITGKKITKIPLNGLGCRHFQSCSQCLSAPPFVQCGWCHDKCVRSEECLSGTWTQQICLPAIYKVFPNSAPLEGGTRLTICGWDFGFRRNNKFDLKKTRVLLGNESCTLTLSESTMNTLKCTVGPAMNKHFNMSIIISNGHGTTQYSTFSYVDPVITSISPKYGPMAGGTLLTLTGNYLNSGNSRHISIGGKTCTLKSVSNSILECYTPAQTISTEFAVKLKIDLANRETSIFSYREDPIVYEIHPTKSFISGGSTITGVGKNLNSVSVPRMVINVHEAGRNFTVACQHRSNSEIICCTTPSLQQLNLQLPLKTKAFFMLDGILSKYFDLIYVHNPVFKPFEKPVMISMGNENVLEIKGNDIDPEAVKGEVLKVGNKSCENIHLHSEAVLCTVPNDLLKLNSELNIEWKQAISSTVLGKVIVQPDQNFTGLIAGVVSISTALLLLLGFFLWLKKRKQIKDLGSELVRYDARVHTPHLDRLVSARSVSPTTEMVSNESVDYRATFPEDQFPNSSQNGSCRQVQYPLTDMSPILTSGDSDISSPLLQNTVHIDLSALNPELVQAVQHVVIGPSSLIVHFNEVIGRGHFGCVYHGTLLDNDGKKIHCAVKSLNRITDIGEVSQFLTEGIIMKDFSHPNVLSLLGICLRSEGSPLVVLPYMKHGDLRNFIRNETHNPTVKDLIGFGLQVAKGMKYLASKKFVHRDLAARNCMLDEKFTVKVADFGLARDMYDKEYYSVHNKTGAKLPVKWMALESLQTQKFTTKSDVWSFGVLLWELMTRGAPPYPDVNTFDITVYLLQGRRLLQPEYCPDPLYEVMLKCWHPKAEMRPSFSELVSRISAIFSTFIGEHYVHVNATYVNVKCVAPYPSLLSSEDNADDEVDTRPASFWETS

Compound | Ki [1] [nM] | Ki [2] [nM]
CC(C)N(C)C(=O)c1ccc(-c2cnc3c(-c4ccccn4)c(N)nn3c2)nc1 [Compound V-67] | < 500 | 500 to 5000
Nc1nn2cc(-c3ccc(C(=O)N4CCCC(CO)C4)cn3)cnc2c1-c1ccccn1 (stereo not shown) [Compound V-71] | < 500 | 500 to 5000
Cc1cnc2c(-c3cc(Nc4ccccc4)ncn3)c(N)nn2c1 [Compound V-279] | < 500 | < 500
Nc1nn2cc(-c3ccc(C(=O)N4CCC(CCO)CC4)cn3)cnc2c1-c1ccccn1 [Compound V-83] | < 500 | 500 to 5000
Cc1cnc2c(-c3cc(NC4CCC4)ncn3)c(N)nn2c1 [Compound V-290] | < 500 | 500 to 5000
COc1ccncc1-c1cnc2c(-c3ccccn3)c(N)nn2c1 [Compound V-22] | < 500 | > 5000
CN(C)CCNC(=O)c1ccc(-c2cnc3c(-c4ccccn4)c(N)nn3c2)nc1 [Compound V-65] | < 500 | 500 to 5000
CC[C@H](C)Nc1cc(-c2c(N)nn3cc(C)cnc23)ncn1 [Compound V-294] | < 500 | 500 to 5000
Cc1cnc2c(-c3cc(NC4CC4)ncn3)c(N)nn2c1 [Compound V-289] | < 500 | 500 to 5000
CN(C)CCNC(=O)c1cccc(-c2cnc3c(-c4ccccn4)c(N)nn3c2)c1 [Compound V-54] | < 500 | > 5000
COc1ccc(-c2cnc3c(C#N)c(N)nn3c2)cc1 [Compound V-2] | 500 to 5000 | > 5000
CCN(CCN)C(=O)c1ccc(-c2cnc3c(-c4ccccn4)c(N)nn3c2)nc1 [Compound V-62] | < 500 | 500 to 5000
Cc1cnc2c(-c3cc(NC4CCN(Cc5ccccc5)C4)ncn3)c(N)nn2c1 (stereo not shown) [Compound V-286] | < 500 | 500 to 5000
COCCN1CCN(C(=O)c2ccc(-c3cnc4c(-c5ccccn5)c(N)nn4c3)nc2)CC1 [Compound V-68] | < 500 | 500 to 5000
Nc1nn2cc(-c3ccc(C(=O)NCCF)cn3)cnc2c1-c1ccccn1 [Compound V-73] | < 500 | > 5000
COc1ccccc1Nc1cc(-c2c(N)nn3cc(C)cnc23)ncn1 [Compound V-274] | < 500 | 500 to 5000
CCN(CCC#N)C(=O)c1ccc(-c2cnc3c(-c4ccccn4)c(N)nn3c2)nc1 [Compound V-90] | < 500 | 500 to 5000
Nc1nn2cc(-c3ccc(C(=O)N4CCCCC4CCO)cn3)cnc2c1-c1ccccn1 (stereo not shown) [Compound V-82] | < 500 | > 5000
Nc1nn2cc(-c3ccc(C(=O)N4CCC(N)C4)cn3)cnc2c1-c1ccccn1 (stereo not shown) [Compound V-81] | < 500 | 500 to 5000
CCN(C)C(=O)c1ccc(-c2cnc3c(-c4ccccn4)c(N)nn3c2)nc1 [Compound V-89] | < 500 | 500 to 5000
Cc1cnc2c(-c3cc(N[C@H](C)CO)ncn3)c(N)nn2c1 [Compound V-293] | < 500 | 500 to 5000
Cc1cnc2c(-c3cc(NC4CCCCC4)ncn3)c(N)nn2c1 [Compound V-291] | < 500 | 500 to 5000
CCN(CCCCN)C(=O)c1ccc(-c2cnc3c(-c4ccccn4)c(N)nn3c2)nc1 [Compound V-74] | < 500 | 500 to 5000
CCOC(=O)N1CCN(C(=O)c2ccc(-c3cnc4c(-c5ccccn5)c(N)nn4c3)nc2)CC1 [Compound V-76] | < 500 | 500 to 5000
CCCN(CCO)C(=O)c1ccc(-c2cnc3c(-c4ccccn4)c(N)nn3c2)nc1 [Compound V-92] | < 500 | 500 to 5000

Compound | Ki [1] [nM] | Ki [2] [nM]
Nc1nn2cc(-c3ccc(C(=O)N4CCSCC4)cn3)cnc2c1-c1ccccn1 [Compound V-87] | < 500 | 500 to 5000
Nc1nn2cc(-c3ccc(C(=O)N4CCC[C@@H](O)C4)cn3)cnc2c1-c1ccccn1 [Compound V-79] | < 500 | 500 to 5000
CCN(C(=O)c1c(N)nn2cc(-c3ccncn3)cnc12)C(C)C [Compound V-33] | 500 to 5000 | > 5000
Cc1cnc2c(-c3cc(NC4CCN(Cc5ccccc5)CC4)ncn3)c(N)nn2c1 [Compound V-285] | < 500 | 500 to 5000
CSc1cc(-c2c(N)nn3cc(C)cnc23)ncn1 [Compound V-281] | < 500 | 500 to 5000
Cc1cnc2c(-c3cc(N4CCCCC4)ncn3)c(N)nn2c1 [Compound V-276] | < 500 | 500 to 5000
Cc1cnc2c(-c3cc(NC(C)C)ncn3)c(N)nn2c1 [Compound V-273] | < 500 | 500 to 5000
COCCN(C)C(=O)c1ccc(-c2cnc3c(-c4ccccn4)c(N)nn3c2)nc1 [Compound V-75] | < 500 | > 5000
CN1CCN(C(=O)c2cccc(-c3cnc4c(-c5ccccn5)c(N)nn4c3)c2)CC1 [Compound V-55] | < 500 | > 5000
CCN1CCN(C(=O)c2ccc(-c3cnc4c(-c5ccccn5)c(N)nn4c3)nc2)C(O)C1 (stereo not shown) [Compound V-78] | < 500 | 500 to 5000
CN1CCCN(C(=O)c2ccc(-c3cnc4c(-c5ccccn5)c(N)nn4c3)nc2)CC1 [Compound V-70] | < 500 | 500 to 5000
Nc1nn2cc(-c3ccc(C(=O)N4CCC4)cn3)cnc2c1-c1ccccn1 [Compound V-86] | < 500 | > 5000
CCN1CCN(C(=O)c2ccc(-c3cnc4c(-c5ccccn5)c(N)nn4c3)nc2)CC1 [Compound V-63] | < 500 | 500 to 5000
CN(CCN)C(=O)c1ccc(-c2cnc3c(-c4ccccn4)c(N)nn3c2)nc1 [Compound V-94] | < 500 | > 5000
CC(C)N1CCN(c2ccc(-c3cnc4c(-c5ccccn5)c(N)nn4c3)cc2)CC1 [Compound V-51] | < 500 | 500 to 5000
CCCN(CCCN)C(=O)c1ccc(-c2cnc3c(-c4ccccn4)c(N)nn3c2)nc1 [Compound V-85] | < 500 | 500 to 5000
Cc1cnc2c(-c3cc(N[C@@H](C)CO)ncn3)c(N)nn2c1 [Compound V-295] | < 500 | 500 to 5000
Nc1nn2cc(Cl)cnc2c1-c1ccccn1 [Compound V-280] | 500 to 5000 | > 5000
Nc1nn2cc(N3CCOCC3)cnc2c1-c1ccccn1 [Compound V-57] | < 500 | > 5000
COC(=O)N1CCN(C(=O)c2ccc(-c3cnc4c(-c5ccccn5)c(N)nn4c3)nc2)CC1 [Compound V-64] | < 500 | 500 to 5000
CCOC(=O)c1c(N)nn2cc(-c3ccc(Cl)cc3)cnc12 [Compound V-24] | 500 to 5000 | > 5000
Cc1cnc2c(-c3cc(NCC4CCCO4)ncn3)c(N)nn2c1 (stereo not shown) [Compound V-278] | < 500 | 500 to 5000
Cc1cnc2c(-c3cc(NCC4CC4)ncn3)c(N)nn2c1 [Compound V-277] | < 500 | 500 to 5000
C#CCN(C)C(=O)c1ccc(-c2cnc3c(-c4ccccn4)c(N)nn3c2)nc1 [Compound V-72] | < 500 | 500 to 5000
Nc1nn2cc(-c3ccc(C(=O)N4CCC[C@@H]4CO)cn3)cnc2c1-c1ccccn1 [Compound V-93] | < 500 | 500 to 5000

Source: patent publication US7528138B2, “Pyrazolo[1,5-a]pyrimidines useful as inhibitors of protein kinases” (Vertex Pharmaceuticals Incorporated, priority 2004, dated 2009)
